Experimental data from US10308617B2, “Triazole benzamide derivatives and the compositions and methods of treatment regarding the same” (An2H Discovery Limited, priority 2016, dated 2019).

Biological target: T1, Parkin ligase (Homo sapiens, UniProt O60260)
T1 sequence (O60260 1-465): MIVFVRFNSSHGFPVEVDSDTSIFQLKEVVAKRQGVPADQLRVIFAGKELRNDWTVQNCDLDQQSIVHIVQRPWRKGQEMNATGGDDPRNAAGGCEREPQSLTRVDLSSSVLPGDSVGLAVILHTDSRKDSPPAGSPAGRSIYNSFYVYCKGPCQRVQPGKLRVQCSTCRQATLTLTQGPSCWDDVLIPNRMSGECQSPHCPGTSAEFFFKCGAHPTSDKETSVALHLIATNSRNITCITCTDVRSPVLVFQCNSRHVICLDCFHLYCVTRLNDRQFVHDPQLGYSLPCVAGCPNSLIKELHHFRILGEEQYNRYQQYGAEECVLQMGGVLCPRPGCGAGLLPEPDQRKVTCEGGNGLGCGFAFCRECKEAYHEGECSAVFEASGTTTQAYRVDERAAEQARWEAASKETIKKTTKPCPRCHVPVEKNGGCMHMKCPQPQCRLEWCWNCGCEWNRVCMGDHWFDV
Test: Activity-Based Probe Assay using an Ubiquitin vinyl sulfone probe (TR-FRET)
Type: biochemical
Conditions: not given
Procedure: An Ubiquitin vinyl sulfone probe can be used that irreversibly binds to the active site cysteine of Parkin ligase. Covalent attachment of the probe to the Parkin can be monitored by TR-FRET. Candidate activator compounds can be identified by increasing the activity of Parkin ligase due to an increase in TR-FRET signal. Screening for activating compounds can be distinguished from the controls as follows: • 100% activation signal=Heat activated Parkin+100 nM control activator in DMSO. • 0% activation signal=Heat activated Parkin+DMSO only. • Parkin activators can be identified by an increase of the 0% activation signal TR-FRET signal.
• Assay Plate: White 384 well plate (Corning 3572) • Enzyme: Parkin-His tagged 203 μM (10.5 mg/ml) • Probe: Ubiquitin vinyl-sulfone (HA-Ub-VS Boston Biochem U-212) • DMSO: DMSO (Sigma cat # D4540-100ML) • Reaction Buffer: 50 mM HEPES (pH 8.5), 150 mM NaCl, 0.01% Tween 20, 0.1% BSA • Detection Buffer: 50 mM HEPES (pH 8.5), 150 mM NaCl, 0.01% Tween 20, 0.1% BSA, 800 mM KF • Detection Reagent A: 2.6 nM Anti-6HIS-Eu cryptate and 40 nM Anti-HA-XL665 in detection buffer • Eu cryptate: Anti-6HIS-Eu cryptate (CisBio 61HISKLA) • XL665: Anti-HA-XL665 (CisBio 610HAXLA) Enzyme Reaction (15 min pre incubation Parkin with activator only) • Parkin: 40 nM • HA-Ub-VS Probe: 70 nM • Activator/DMSO: 2× Activator/2% DMSO • Reaction time: 60 minutes • Temperature: 22° C. • Total volume: 10 μl reaction Detection Reaction • Take 10 μl of Enzyme Reaction above and add 10 μl detection Reagent A under the following conditions: • Reaction time: 60 minutes • Temperature: 22° C. • Total volume: 20 μl
Assay procedure (Using HP D-300 compound dispenser and Bravo for the operation): • 1) Heat activate Parkin in reaction buffer (500 μl/1.5 ml tube: Eppendorf Thermomixer 5 minutes, 400 rpm at 58° C. and put on ice until needed). • 2) Load assay plate wells with 4.8 μl 84.5 nM Parkin in reaction buffer by use of Bravo. • 3) Deliver 0.2 μl 200× activator candidates in DMSO by use of HP D-300 compound dispenser. Highest 200× concentration=[…] and then twofold dilutions. • 4) Spin 1000 rpm, 2 minutes, at room temp. • 5) Incubate plate for 15 minutes at room temp. • 6) Add 5 μl 140 nM HA-Ub-VS Probe in reaction buffer by use of Bravo. • 7) Spin 1000 rpm, 2 minutes, at room temp. • 8) Incubate plate for 60 minutes at room temp. • 9) Add 10 μl 2.6 nM Anti-6HIS-Eu cryptate and 40 nM Anti-HA-XL665 in detection buffer. • 10) Spin 1000 rpm, 2 minutes, at room temp. • 11) Incubate plate for 60 minutes at room temp. • 12) Read plates on Perkin Elmer Envision instrument with the following parameters: • LANCE dual laser protocol loaded into the Envision® software • Top Mirror: LANCE/DELFIA Duel/Bias (Bar code 446) • Emission Filter: APC 665 EM (Bar code 205) • 2nd Emission Filter: Europium 615 EM (Bar code 203) • Read 655 nm (channel 1) and 615 nm (channel 2) wavelengths on Envision®
Data Analysis: The Data can be read in CSV files. There are two tables in those CSV files, which are the values of 655 nm (channel 1) and 615 nm (channel 2) wavelengths respectively. The data is converted to an HTRF Ratio=(Channel 1/Channel 2)*10,000
The average of all the 0 uM controls (DMSO only)=BKGD (Background—0% activation). Subtract BKGD from each HTRF Ratio value=HTRF-BKGD. The average of all the […] 100 nM control activator in DMSO controls=Max (100% activation). The following equation is then used to calculate % Activation for each well/candidate as follows: % Activation=(HTRF-BKGD/Max)*100.
Graphpad Prisim was used with Transform X values: X=Log(X) and nonlinear regression (dose-response-stimulation): Log(agonist) vs Response—variable slope (four parameters) with constrains set to Bottom=0 and Top=100.
The Activity-Based Probe Assay was performed with various compounds in Tables 1-3.

Row | SMILES | Parkin Ligase reaction with the Activity-based Ubiquitin vinyl sulfone probe
1 | O=C(Nc1nc(NC(=O)c2ccccc2)n(-c2ccccc2)n1)c1ccccc1 [Compound A, N,N′-(1-phenyl-1H-1,2,4-triazole-3,5-diyl)dibenzamide] | increases

Same assay, conditions: Parkin activation, HA-Ub-VS probe, heat activated Parkin; read-out: Probe Assay EC50 (μM) [Example 2]

Row | SMILES | EC50 [µM]
2 | O=C(Nc1nc(Nc2cc(N3CCCC3)nc3ccccc23)n(-c2ccccc2)n1)c1ccccc1 [Compound A1] | > 100
3 | CN(C(=O)c1ccccc1)c1nc(NC(=O)c2ccccc2)nn1-c1ccccc1 [V] | > 100
4 | CN(C(=O)c1ccccc1)c1nc(NC(=O)c2ccccc2)n(-c2ccccc2)n1 [G] | > 100
5 | O=C(Nc1nc(Nc2ncnc3ccccc23)n(-c2ccccc2)n1)c1ccco1 [Z] | 9.1
6 | O=C(Nc1nc(NC(=O)c2ccccc2)n(-c2ccccc2)n1)c1ccccc1 [Compound A, N,N′-(1-phenyl-1H-1,2,4-triazole-3,5-diyl)dibenzamide] | 7
7 | O=C(Nc1nc(Nc2nccc3ccccc23)n(-c2ccccc2)n1)c1ccccc1 [U] | > 100
8 | O=C(Nc1nc(NC(=O)c2ccccc2)n(-c2cccc3cccnc23)n1)c1ccccc1 [Compound O2] | > 100
9 | O=C(Nc1nc(NC(=O)c2ccccc2)n(-c2ccc(-c3ccccc3)cc2)n1)c1ccccc1 [Compound X1] | 62
10 | Cc1ccccc1C(=O)Nc1nc(C2CCOCC2)nn1-c1ccccc1 [Compound V2] | > 100
11 | O=C(Nc1nc(NC(=O)c2cccs2)nn1-c1ccccc1)c1ccccc1 [Compound G2] | 2
12 | O=C(Nc1nc(NC(=O)c2cc3ccccc3s2)n(-c2ccccc2)n1)c1ccccc1 [Compound A2] | 50
13 | CCN(CC)c1cc(Nc2nc(NC(=O)c3ccccc3)nn2-c2ccccc2)ncn1 [Compound F1] | > 100
14 | C/C=C/C(=O)Nc1nc(Nc2ncnc3ccccc23)n(-c2ccccc2)n1 [Compound L1] | 37
15 | Cc1ccccc1C(=O)Nc1nc(-c2ccccn2)nn1-c1ccc(OC(F)(F)F)cc1 [Compound H3] | 3
16 | O=C(Nc1nc(Nc2cc(N3CCCC3)ncn2)n(-c2ccccc2)n1)c1ccccc1 [Compound G1] | > 100
17 | Cc1ccccc1C(=O)Nc1nc(-c2ccncc2)nn1-c1ccccc1 [Compound S2] | > 100
18 | Nc1nc(Nc2nc(NC(=O)c3ccccc3)nn2-c2ccccc2)nc2ccccc12 [Compound N1] | > 100
19 | Cc1ccccc1-n1nc(NC(=O)c2ccccc2)nc1NC(=O)c1ccccc1 [M] | > 100
20 | Cc1ccccc1C(=O)Nc1nc(NC(=O)c2ccccc2)nn1-c1ccccc1 [Compound K, N-(5-benzamido-2-phenyl-1,2,4-triazol-3-yl)-2-methyl-benzamide] | 10.8
21 | Cc1ccc(-c2nc(NC(=O)c3ccccc3C)n(-c3ccccc3)n2)nc1 [Compound R3, 2-methyl-N-(3-(5-methylpyridin-2-yl)-1-phenyl-1H-1,2,4-triazol-5-yl)benzamide] | 3
22 | C=C(C)C(=O)Nc1nc(Nc2ncnc3ccccc23)n(-c2ccccc2)n1 [Compound M1] | 11.9
23 | O=C(Nc1nc(NC(=O)c2ccccc2)n(-c2ccc(I)cc2)n1)c1ccccc1 [Compound E, N-[5-benzamido-1-(4-iodophenyl)-1,2,4-triazol-3-yl]benzamide] | 15.3
24 | O=C(Nc1nc(NC(=O)c2ccccc2)n(-c2ccc3ncccc3c2)n1)c1ccccc1 [Compound J2] | 6
25 | Nc1nc(Nc2nc(NC(=O)c3ccccc3)nn2-c2ccccc2)c2ccccc2n1 [Compound J1] | > 100

Row | SMILES | EC50 [µM]
26 | O=C(Nc1nc(NC(=O)c2ccco2)n(-c2ccccc2)n1)c1ccccc1 [Compound W1] | 10.4
27 | O=C(Nc1nc(NC(=O)c2ccccc2)n(-c2ccc3c(c2)OCCO3)n1)c1ccccc1 [Compound E2] | 6
28 | Cc1ccccc1C(=O)Nc1nc(NC(=O)/C=C/c2ccccc2)n(-c2ccccc2)n1 [Compound C2] | 4
29 | CN(C(=O)c1ccccc1)c1nc(N(C)C(=O)c2ccccc2)n(-c2ccccc2)n1 [J] | > 100
30 | O=C(Nc1nc(-c2ccccn2)nn1-c1ccccc1)c1ccccc1 [Compound Y1, N-(1-phenyl-3-(pyridin-2-yl)-1H-1,2,4-triazol-5-yl)benzamide] | 2
31 | Cc1ccccc1C(=O)Nc1nc(NC(=O)c2ccccc2C)n(-c2ccccn2)n1 [Compound X2] | > 100
32 | O=C(Nc1nc(Nc2ccnc3ccccc23)n(-c2ccccc2)n1)c1ccccc1 [Compound I1] | > 100
33 | O=C(Nc1nc(NC(=O)c2cccc([N+](=O)[O-])c2)n(-c2ccccc2)n1)c1ccccc1 [Compound V1] | > 100
34 | Cc1ccccc1C(=O)Nc1nc(-c2cccnc2)nn1-c1ccccc1 [Compound T2] | > 100
35 | CCN(CC)c1nc(Nc2nc(NC(=O)c3ccccc3)nn2-c2ccccc2)c2ccccc2n1 [W] | > 100
36 | O=C(Nc1nc(Nc2ccncn2)n(-c2ccccc2)n1)c1ccccc1 [Compound H1] | > 100
37 | Cc1ccccc1C(=O)Nc1nc(NC(=O)c2cccs2)nn1-c1ccccc1 [Compound K2] | 6
38 | O=C(Nc1nc(Nc2ncnc3ccccc23)nn1-c1ccccc1)c1ccccc1 [I] | > 100
39 | O=C(Nc1nc(Nc2nc(O)nc3ccccc23)n(-c2ccccc2)n1)c1ccccc1 [Compound E1] | > 100
40 | Cc1ccccc1C(=O)Nc1nc(-c2ncccc2C)nn1-c1ccccc1 [Compound S3, 2-methyl-N-(3-(3-methylpyridin-2-yl)-1-phenyl-1H-1,2,4-triazol-5-yl)benzamide] | 3
41 | O=C(Nc1nc(NC(=O)c2ccccc2)n(C2CCOCC2)n1)c1ccccc1 [Compound I2] | > 100
42 | O=C(Nc1nc(Nc2nc(O)c3ccccc3n2)n(-c2ccccc2)n1)c1ccccc1 [Compound O1] | 12.8
43 | Cc1ccccc1C(=O)Nc1nc(NC(=O)c2ccccc2C)n(-c2ccc(Cl)cc2)n1 [Compound Q3] | 4
44 | Cc1ccccc1C(=O)Nc1nc(Nc2ncnc3ccccc23)n(-c2ccccc2)n1 [Compound R2] | 4
45 | Cc1ccccc1C(=O)Nc1nc(NC(=O)c2ccccc2C)n(C(C)C)n1 [Compound W2] | > 100
46 | O=C(Nc1nc(NC(=O)c2ccccc2)n(-c2ccc(OC(F)(F)F)cc2)n1)c1ccccc1 [Compound Z1] | 1
47 | O=C(Nc1nc(NC(=O)c2ccccc2)n(-c2ccc3ccccc3n2)n1)c1ccccc1 [Compound D2] | 89
48 | Cc1ccccc1C(=O)Nc1nc(NC(=O)c2ccccc2C)n(-c2ccccc2)n1 [Compound F, 2-methyl-N-[5-[(2-methylbenzoyl)amino]-1-phenyl-1,2,4-triazol-3-yl]benzamide] | 6.7
49 | O=C(Nc1nc(NC(=O)c2nc3ccccc3s2)n(-c2ccccc2)n1)c1ccccc1 [Compound M2] | > 100
